Read-outs that look alike come from different tables or passages of the source.
Tests used:
SETDB1 = SETDB1 (Homo sapiens, UniProt Q15047); assay: human MTase selectivity panel; type: biochemical
SARS-CoV-2 = type: cell-based; conditions: Calu-3 cells, lung epithelial SARS-CoV-2 infection model
G9a = target: T1, G9a (Homo sapiens, UniProt Q96KQ7); assay: human MTase selectivity panel; type: biochemical
T1 sequence (Q96KQ7 1-1210): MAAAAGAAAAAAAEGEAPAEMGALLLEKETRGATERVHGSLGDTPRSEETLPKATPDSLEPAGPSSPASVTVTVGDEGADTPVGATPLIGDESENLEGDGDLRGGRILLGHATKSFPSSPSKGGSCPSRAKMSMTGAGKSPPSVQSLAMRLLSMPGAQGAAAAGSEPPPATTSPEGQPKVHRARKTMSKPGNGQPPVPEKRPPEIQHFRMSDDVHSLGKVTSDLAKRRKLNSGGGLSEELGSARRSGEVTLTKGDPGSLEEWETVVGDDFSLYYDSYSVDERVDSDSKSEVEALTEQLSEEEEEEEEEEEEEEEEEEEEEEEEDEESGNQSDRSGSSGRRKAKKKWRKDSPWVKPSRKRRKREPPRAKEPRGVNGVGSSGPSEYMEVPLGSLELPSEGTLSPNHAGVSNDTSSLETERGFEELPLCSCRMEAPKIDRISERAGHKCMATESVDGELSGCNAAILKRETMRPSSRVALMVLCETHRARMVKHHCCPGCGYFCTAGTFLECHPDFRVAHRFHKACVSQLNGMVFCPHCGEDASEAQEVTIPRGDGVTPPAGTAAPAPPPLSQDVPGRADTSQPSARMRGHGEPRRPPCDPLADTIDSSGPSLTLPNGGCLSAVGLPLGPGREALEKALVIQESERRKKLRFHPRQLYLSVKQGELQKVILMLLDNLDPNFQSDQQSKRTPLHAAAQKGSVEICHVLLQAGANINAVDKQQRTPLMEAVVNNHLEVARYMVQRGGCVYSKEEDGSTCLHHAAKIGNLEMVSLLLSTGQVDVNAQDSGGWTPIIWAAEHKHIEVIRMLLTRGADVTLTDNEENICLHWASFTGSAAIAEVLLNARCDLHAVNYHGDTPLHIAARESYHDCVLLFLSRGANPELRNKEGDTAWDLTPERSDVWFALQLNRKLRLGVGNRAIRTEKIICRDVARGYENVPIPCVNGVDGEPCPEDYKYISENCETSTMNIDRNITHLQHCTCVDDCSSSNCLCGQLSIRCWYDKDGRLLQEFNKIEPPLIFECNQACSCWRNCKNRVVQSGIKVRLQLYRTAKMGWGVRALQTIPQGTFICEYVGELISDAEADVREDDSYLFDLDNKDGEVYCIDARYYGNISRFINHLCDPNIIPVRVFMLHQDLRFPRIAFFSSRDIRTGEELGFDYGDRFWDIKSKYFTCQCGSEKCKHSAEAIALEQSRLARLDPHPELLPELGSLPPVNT

SMYD3 = target: T2, SMYD3 (Homo sapiens, UniProt Q9H7B4); assay: human MTase selectivity panel; type: biochemical
T2 sequence (Q9H7B4 1-428): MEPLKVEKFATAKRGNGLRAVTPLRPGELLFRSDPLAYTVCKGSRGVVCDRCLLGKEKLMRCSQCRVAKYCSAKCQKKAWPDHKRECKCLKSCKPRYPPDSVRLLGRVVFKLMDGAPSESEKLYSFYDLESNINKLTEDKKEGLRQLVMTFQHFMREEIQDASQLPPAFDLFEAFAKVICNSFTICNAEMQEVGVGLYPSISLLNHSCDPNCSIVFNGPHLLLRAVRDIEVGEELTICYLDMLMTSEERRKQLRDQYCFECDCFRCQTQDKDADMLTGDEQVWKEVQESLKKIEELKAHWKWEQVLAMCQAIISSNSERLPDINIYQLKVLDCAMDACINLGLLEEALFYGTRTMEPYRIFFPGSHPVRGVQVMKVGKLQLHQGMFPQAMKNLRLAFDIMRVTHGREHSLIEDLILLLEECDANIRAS

[1] = target: T3, PRMT7 (protein arginine methyltransferase 7) (Homo sapiens, UniProt Q9NVM4); assay: human MTase selectivity panel and IC50; type: biochemical
T3 sequence (Q9NVM4 1-692): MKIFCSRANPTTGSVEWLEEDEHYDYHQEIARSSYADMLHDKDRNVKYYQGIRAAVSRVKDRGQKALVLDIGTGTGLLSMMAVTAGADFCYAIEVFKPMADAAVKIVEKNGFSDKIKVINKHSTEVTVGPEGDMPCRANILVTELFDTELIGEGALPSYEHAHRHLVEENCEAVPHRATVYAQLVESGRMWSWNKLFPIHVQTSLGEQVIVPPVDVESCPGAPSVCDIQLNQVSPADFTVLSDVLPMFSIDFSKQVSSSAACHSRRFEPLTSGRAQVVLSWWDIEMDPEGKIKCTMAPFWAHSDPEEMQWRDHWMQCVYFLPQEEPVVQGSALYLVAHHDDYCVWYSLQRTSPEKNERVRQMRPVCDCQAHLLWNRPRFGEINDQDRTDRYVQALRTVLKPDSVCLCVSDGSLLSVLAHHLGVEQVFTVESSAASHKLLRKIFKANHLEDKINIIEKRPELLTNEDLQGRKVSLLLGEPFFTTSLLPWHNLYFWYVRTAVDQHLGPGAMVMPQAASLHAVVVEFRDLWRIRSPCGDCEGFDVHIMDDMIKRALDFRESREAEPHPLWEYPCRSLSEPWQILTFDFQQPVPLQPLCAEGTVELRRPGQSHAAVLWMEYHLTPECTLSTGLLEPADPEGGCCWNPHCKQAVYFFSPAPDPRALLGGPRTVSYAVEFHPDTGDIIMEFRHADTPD

SUV39H2 = SUV39H2 (Homo sapiens, UniProt Q9H5I1); assay: human MTase selectivity panel; type: biochemical
Chain of SUV39H2 (Q9H5I1 whole entry): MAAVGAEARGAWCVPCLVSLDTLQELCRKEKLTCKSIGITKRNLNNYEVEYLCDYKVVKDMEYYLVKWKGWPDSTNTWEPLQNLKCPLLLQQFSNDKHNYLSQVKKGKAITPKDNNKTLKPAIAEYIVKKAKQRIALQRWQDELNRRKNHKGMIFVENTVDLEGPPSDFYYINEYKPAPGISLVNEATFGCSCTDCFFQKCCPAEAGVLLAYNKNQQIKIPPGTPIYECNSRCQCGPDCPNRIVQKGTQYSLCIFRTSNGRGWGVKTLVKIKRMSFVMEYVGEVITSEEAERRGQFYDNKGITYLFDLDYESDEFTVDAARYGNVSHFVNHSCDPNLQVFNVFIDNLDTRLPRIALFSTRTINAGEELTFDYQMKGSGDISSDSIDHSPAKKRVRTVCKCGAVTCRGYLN

[2] = target: human RNMT (N7 guanosine RNA methyltransferase) (Homo sapiens, UniProt O43148); assay: RNMT activity inhibition (selectivity); type: biochemical
Chain of human RNMT (N7 guanosine RNA methyltransferase) (O43148 whole entry): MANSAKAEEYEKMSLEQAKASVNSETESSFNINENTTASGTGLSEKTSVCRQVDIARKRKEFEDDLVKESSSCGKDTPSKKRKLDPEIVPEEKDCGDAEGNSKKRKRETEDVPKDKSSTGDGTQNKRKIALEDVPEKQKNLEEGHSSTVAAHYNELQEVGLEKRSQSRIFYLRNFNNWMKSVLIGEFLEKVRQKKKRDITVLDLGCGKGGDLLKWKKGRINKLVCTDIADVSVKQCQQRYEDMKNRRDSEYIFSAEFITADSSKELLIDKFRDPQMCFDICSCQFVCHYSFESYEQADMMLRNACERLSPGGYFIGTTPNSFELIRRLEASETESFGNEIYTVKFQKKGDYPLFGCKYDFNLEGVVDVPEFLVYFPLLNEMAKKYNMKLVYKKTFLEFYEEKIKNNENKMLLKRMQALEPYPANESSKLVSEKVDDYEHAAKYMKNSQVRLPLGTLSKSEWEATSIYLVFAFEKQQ

SUV420H2 = SUV420H2 (Homo sapiens, UniProt Q86Y97); assay: human MTase selectivity panel; type: biochemical
Chain of SUV420H2 (Q86Y97 whole entry): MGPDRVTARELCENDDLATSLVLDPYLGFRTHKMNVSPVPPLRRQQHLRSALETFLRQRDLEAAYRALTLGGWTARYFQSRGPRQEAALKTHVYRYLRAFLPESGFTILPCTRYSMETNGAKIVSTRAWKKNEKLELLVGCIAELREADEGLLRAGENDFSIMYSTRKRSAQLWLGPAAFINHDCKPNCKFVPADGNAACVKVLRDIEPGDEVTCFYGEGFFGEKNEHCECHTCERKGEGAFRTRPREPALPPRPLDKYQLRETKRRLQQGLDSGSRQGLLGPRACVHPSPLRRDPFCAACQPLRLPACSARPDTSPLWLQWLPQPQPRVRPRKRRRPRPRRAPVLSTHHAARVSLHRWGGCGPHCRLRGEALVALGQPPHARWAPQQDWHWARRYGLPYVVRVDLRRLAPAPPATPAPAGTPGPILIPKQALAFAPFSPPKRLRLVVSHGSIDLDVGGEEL

[3] = average ± SD, read-out: Activity (%) at 10 µM Average
[4] = read-out: Activity (%) at 10 µM Replicate 1
[5] = read-out: Activity (%) at 10 µM Replicate 2
[6] = read-out: Activity (%) at 10 µM Replicate 3

Structure (SMILES): Nc1ncnc2c1ncn2[C@@H]1O[C@H](CSCc2ccc(Cl)cc2)[C@@H](O)[C@H]1O [NSC620333]
- activity at 10 µM (SETDB1; [3]): 103 ± 3%
- activity at 10 µM (SETDB1; [4]): 104%
- activity at 10 µM (SETDB1; [5]): 106%
- activity at 10 µM (SETDB1; [6]): 100%
- anti-SARS-CoV-2 activity (SARS-CoV-2): demonstrated anti-SARS-CoV-2 activity
- activity at 10 µM (G9a; [3]): 89 ± 9%
- activity at 10 µM (G9a; [4]): 97%
- activity at 10 µM (G9a; [5]): 79%
- activity at 10 µM (G9a; [6]): 91%
- activity at 10 µM (SMYD3; [3]): 100 ± 9%
- activity at 10 µM (SMYD3; [4]): 101%
- activity at 10 µM (SMYD3; [5]): 108%
- activity at 10 µM (SMYD3; [6]): 91%
- IC50 ([1]; PRMT7): 7 ± 1.5 µM
- activity at 10 µM ([1]; PRMT7, average ± SD, read-out: Activity (%) at 10 µM Average): 32 ± 3%
- activity at 10 µM ([1]; PRMT7, read-out: Activity (%) at 10 µM Replicate 1): 35%
- activity at 10 µM ([1]; PRMT7, read-out: Activity (%) at 10 µM Replicate 2): 29%
- activity at 10 µM ([1]; PRMT7, read-out: Activity (%) at 10 µM Replicate 3): 32%
- Hill Slope ([1]; PRMT7 IC50 curve): -1.9
- activity at 10 µM (SUV39H2; [3]): 103 ± 7%
- activity at 10 µM (SUV39H2; [4]): 108%
- activity at 10 µM (SUV39H2; [5]): 96%
- activity at 10 µM (SUV39H2; [6]): 106%
- IC50 ([2]; RNMT): 8.6 ± 1.3 µM
- Hill Slope ([2]; RNMT IC50 curve): -1.5
- activity at 10 µM (SUV420H2; [3]): 96 ± 9%
- activity at 10 µM (SUV420H2; [4]): 96%
- activity at 10 µM (SUV420H2; [5]): 104%
- activity at 10 µM (SUV420H2; [6]): 86%

From paper doi:10.1101/2023.10.03.560722, “Drug Discovery in Low Data Regimes: Leveraging a Computational Pipeline for the Discovery of Novel SARS-CoV-2 Nsp14-MTase Inhibitors” (bioRxiv, 2024)
